According to patent US10174020B2, “Pyridone or pyrimidone derivative, preparation method therefor and application thereof” (Sichuan Haisco Pharmaceutical Co., Ltd., priority 2014, dated 2019):

What was measured:
[1] = target: human blood-coagulation factor XIa (Homo sapiens (Human), UniProt P03951); assay: In vitro inhibitory effect on the enzymatic activity of blood-coagulation factor XIa (S2366 substrate, absorbance at 405 nm); type: biochemical; settings: calculated from IC50 at substrate S2366 200 μM, Km=0.2 mM; IC50=Ki(1+[S]/Km)
Procedure: The following method was used to test the in vitro inhibitory effect of the compounds of the present invention on the activity of human blood-coagulation factor XIa, expressed by the Inhibition constant Ki.
Solution preparation: reaction buffer: 0.03M HEPES acid, 0.145M NaCl, 0.005 M KCl, 0.1% PEG-8000, pH=7.5;
HEPES 8.499 g, NaCl 8.47 g, KCl 0.3725, PEG 8000 1 g, plus ddH2O 800 ml; the pH was adjusted to […] with HCl, and the volume was metered to 1 L.
S2366 substrate stock solution (2 mM): a volume of substrate […] was dissolved in 23 ml sterile deionized water, aliquoted, and stored at 4° C. in darkness.
S2366 substrate working solution: the stock solution was diluted by 4 folds with the reaction buffer before use.
FXIa working solution: 1 μl FXIa stock solution was added to 10 ml reaction buffer and thoroughly mixed before use.
Method: 15 μl test sample working solution (15 μl DMSO for the control group) and 75 μl FXIa working solution were added to a 96-well plate, and incubated at room temperature for 15 min. Then 60 μl S2366 substrate working solution was added to initiate the reaction. The absorbance at 405 nm for the test compounds was continually assayed once every 3 minutes, and a ΔA-time curve was plotted to calculate the slope as the reaction rate. In accordance with the following equation, IC50 of each test sample when the substrate concentration was 200 μM was calculated with spss 16.0. Inhibition (I %) and Ki of the test samples were calculated in accordance with the follow equations, and the results are shown in Table 1. I %=(V0−Vi)/V0×100 where V0 is the reaction rate in the control wells, and Vi is the reaction rate in the test sample wells; IC50=Ki(1+[S]/Km) where Km=0.2 mM, and [S] is the substrate concentration=200 μM.

human plasma = assay: In vitro assay of the blood coagulation function of human plasma (APTT); type: biochemical; settings: concentration required to double the plasma APTT, read-out: aPTT EC2×
Procedure: 20 ml blood was taken by venipuncture from the ulnar vein of each of 20 healthy volunteers aged 25 to 35 years who had not taken any medicines within last one week, and was collected in a sodium citrate anticoagulation tube, with the ratio of anticoagulant to blood being 1:9 (v/v). Anticoagulation blood was taken and centrifuged at 200 g for 15 min, the supernatant therefrom was taken and centrifuged at 2000 g for 15 min, and then the supernatant therefrom was collected, well mixed, separated into 4 to 5 ml aliquots, and stored at −80° C. For APTT and PT assays, a plasma sample was taken and rapidly thawed in a 37° C. water bath, and 6 μl test compound working solution was added per 294 μl plasma, while 6 μl DMSO was added for the blank control. The compounds and plasma were well mixed, and assayed in a coagulometer. The concentration of the compounds (EC2×) required to double the plasma APTT was determined with origin 8.5, and the results are shown in Table 2.

Sequence of human blood-coagulation factor XIa (P03951 388-625): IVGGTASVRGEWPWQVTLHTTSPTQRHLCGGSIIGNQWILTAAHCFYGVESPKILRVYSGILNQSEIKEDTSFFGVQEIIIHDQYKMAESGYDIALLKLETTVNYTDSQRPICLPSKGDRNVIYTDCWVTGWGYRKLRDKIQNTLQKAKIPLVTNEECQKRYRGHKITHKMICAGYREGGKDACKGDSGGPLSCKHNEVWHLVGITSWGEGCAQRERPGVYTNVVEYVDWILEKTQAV
Sequence of human blood-coagulation factor XIa (P03951 19-387 partner): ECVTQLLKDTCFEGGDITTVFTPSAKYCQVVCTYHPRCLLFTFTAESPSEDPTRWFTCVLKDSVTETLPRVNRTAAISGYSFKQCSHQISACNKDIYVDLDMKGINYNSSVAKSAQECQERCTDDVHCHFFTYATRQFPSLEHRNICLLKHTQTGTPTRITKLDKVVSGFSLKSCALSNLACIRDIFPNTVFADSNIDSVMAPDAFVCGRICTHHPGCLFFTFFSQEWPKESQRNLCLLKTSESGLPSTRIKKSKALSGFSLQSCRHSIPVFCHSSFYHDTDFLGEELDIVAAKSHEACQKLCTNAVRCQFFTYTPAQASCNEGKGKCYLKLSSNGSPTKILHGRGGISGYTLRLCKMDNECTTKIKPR

Row | SMILES | Ki [1] [µM] | EC50 (human plasma) [µM]
1 | O=C(O)c1ccc(NC(=O)C2CCc3nc(-c4cc(Cl)ccc4-n4cnnn4)cc(=O)n32)cc1 (stereo not shown) [Compound 1, N-(4-carboxyphenyl)-2-(5-chloro-2-(1H-tetrazol-1-yl)phenyl)-4-oxo-4,6,7,8-tetrahydropyrrolo[1,2-a]pyrimidine-6-carboxamide] | 0.249 | –
2 | O=C(Cn1ccc(-c2cc(Cl)ccc2-n2cnnn2)cc1=O)Nc1ccc2[nH]c(C(=O)O)cc2c1 [Compound 6] | 0.014 | –
3 | O=C(O)c1cc2cc(NC(=O)[C@H]3CCc4cc(-c5cc(Cl)ccc5-n5cnnn5)cc(=O)n43)ccc2[nH]1 (single isomer, unassigned) [Compound 8-2] | 1.03 | –
4 | O=C(O)c1ccc(NC(=O)C2CCc3cc(-c4cc(Cl)ccc4-n4cnnn4)cc(=O)n32)cc1 (stereo not shown) [Compound 2, N-(4-carboxyphenyl)-7-(5-chloro-2-(1H-tetrazol-1-yl)phenyl)-5-oxo-1,2,3,5-tetrahydroindolizine-3-carboxamide] | 0.068 | –
5 | O=C(Cn1ccc(-c2cc(Cl)ccc2-n2cnnn2)cc1=O)Nc1ccc(C(=O)O)cc1 [Compound 5] | 0.146 | –
6 | O=C(O)c1cc2cc(NC(=O)C3CCc4nc(-c5cc(Cl)ccc5-n5cnnn5)cc(=O)n43)ccc2[nH]1 (stereo not shown) [Compound 4, N-(2-carboxyindol-5-yl)-2-(5-chloro-2-(1H-tetrazol-1-yl)phenyl)-4-oxo-4,6,7,8-tetrahydropyrrolo[1,2-a]pyrimidine-6-carboxamide] | 0.017 | 9.5
7 | O=C(O)c1cc2cc(NC(=O)C(Cc3ccccc3)n3ccc(-c4cc(Cl)ccc4-n4cnnn4)cc3=O)ccc2[nH]1 (stereo not shown) [Compound 9, 5-[[2-[4-[5-chloro-2-(tetrazol-1-yl)phenyl]-2-oxo-1-pyridyl]-3-phenyl-propanoyl]amino]-1H-indole-2-carboxylic Acid] | 0.004 | 6.4
8 | O=C(O)c1cc2cc(NC(=O)[C@@H]3CCc4cc(-c5cc(Cl)ccc5-n5cnnn5)cc(=O)n43)ccc2[nH]1 (single isomer, unassigned) [Compound 8-1] | 0.002 | 2.3
9 | O=C(O)c1cc2cc(NC(=O)C3CCc4cc(-c5cc(Cl)ccc5-n5cnnn5)cc(=O)n43)ccc2[nH]1 (stereo not shown) [Compound 3, N-(2-carboxyindol-5-yl)-7-(5-chloro-2-(1H-tetrazol-1-yl)phenyl)-5-oxo-1,2,3,5-tetrahydroindolizine-3-carboxamide] | 0.009 | 6.1
